Values after ≈ are worked out from the molar mass of the structure shown. Like-named read-outs stand apart in the source and are kept apart here.
Experiments:
[1] = test system: MRSA; test: MIC by broth microdilution, MRSA isolates; format: cell-based; conditions: for MIC50: Staphylococcus aureus, MRSA, Table 1 (Example 1); for MIC50 MRSA AG38 / MIC50 MRSA AG39 / MIC50 MRSA AG42 / MIC50 MRSA AG44: Table 1 (Example 2)
[2] = test system: E coli wild type; test: MIC by broth microdilution, wild type E coli; format: cell-based; conditions: for MIC / MIC50: Escherichia coli; for MIC50: Table 1 (Example 1); for MIC50 E coli BM13 (AG06) wt: Table 2A (Example 2); for MIC50 E coli pH430 WT: Table 2B (Example 2); for MIC50 E coli AG01 / MIC50 E coli AG03 / MIC50 E coli AG55: Table 1 (Example 2); for MIC AG212 E. coli: strain AG212 E. coli (ATCC25922)
[3] = test system: P aeruginosa; test: MIC by broth microdilution, P aeruginosa isolates; format: cell-based, Pseudomonas aeruginosa; conditions: for MIC50: Pseudomonas aeruginosa, Table 1 (Example 1)
[4] = test system: E coli carrying specific resistance determinants; test: MIC by broth microdilution, E coli carrying specific resistance determinants; format: cell-based; conditions: for MIC: Escherichia coli
[5] = test system: wild type bacterial ribosomes; test: in-vitro translation assay, bacterial ribosomes; format: biochemical; conditions: bacterial ribosome; Table 3 (Example 1); read-out: IC50 Bac
From the text: (§1) The antiribosomal activity of these compounds was investigated with cell-free translation assays using both wild type bacterial ribosomes and hybrid ribosomes carrying eukaryotic decoding A sites enabling the prediction of selectivity.

[6] = test system: cytosolic ribosome (human chimeric); format: biochemical; conditions: cytosolic; Table 3 (Example 1); read-out: IC50 Cyt
From the text: as §1

[7] = test system: mitochondrial ribosome (human chimeric); format: biochemical; conditions: mitochondrial; Table 3 (Example 1); read-out: IC50 Mit
From the text: as §1

[8] = test system: Klebsiella pneumonia AG215; test: MIC by broth microdilution, Klebsiella pneumonia; format: cell-based; conditions: strain AG215 Klebsiella pneumonia
[9] = test system: Acinetobacter baumannii pittii AG225; test: MIC by broth microdilution, Acinetobacter baumannii; format: cell-based; conditions: strain AG225 Acinetobacter baumannii pittii
[10] = test system: Enterobacter cloacae AG290; test: MIC by broth microdilution, Enterobacter cloacae; format: cell-based; conditions: strain AG290 Enterobacter cloacae
[11] = test system: N. gonorrhoeae; test: Disk diffusion, N. gonorrhoeae; format: cell-based
[12] = test system: M. smegmatis SZ380; test: MIC by broth microdilution, M. smegmatis; conditions: for MIC SZ380 M. smegmatis: strain SZ380 Mycobacterium smegmatis
[13] = strain AG220 Pseudomonas aeruginosa ATCC27853

NCC1OC(OC2C(CNC=O)OC(OC3C(O)C(N)CC(N)C3OC3OC(CO)C(O)CC3N)C2O)C(N)C(O)C1O (stereo not shown) [Compound 153, 3′,5″-Dideoxy-5″-formamido-paromomycin]
MIC50 ([1]; strain AG38, read-out: MIC50 MRSA AG38): 4 µg/mL (≈ 6.38 µM)
MIC50 ([1]; strain AG39, read-out: MIC50 MRSA AG39): > 128 µg/mL
MIC50 ([1]; strain AG42, read-out: MIC50 MRSA AG42): > 128 µg/mL
MIC50 ([1]; strain AG44, read-out: MIC50 MRSA AG44): 4 µg/mL (≈ 6.38 µM)
MIC ([2]; AG006 wt, Table 2 (Example 1), read-out: MIC E coli AG006 wt): 2 µg/mL (≈ 3.19 µM)
MIC ([2]; AG102 wt, Table 2 (Example 1), read-out: MIC E coli AG102 wt): 2 µg/mL (≈ 3.19 µM)
MIC ([2]; AG160 wt, Table 2 (Example 1), read-out: MIC E coli AG160 wt): 2 to 4 µg/mL (≈ 3.19 to 6.38 µM)
MIC ([2]; ATCC25922, strain AG212 E. coli (ATCC25922), read-out: MIC AG212 E. coli): 4 µg/mL (≈ 6.38 µM)
MIC ([2]; WT, Table 3 (Example 1), read-out: MIC WT): 2 µg/mL (≈ 3.19 µM)
MIC ([2]; clinical isolate AG160 WT, Table 2 (Example 4), read-out: MIC AG160 E. coli WT): 2 to 4 µg/mL (≈ 3.19 to 6.38 µM)
MIC ([2]; engineered strain pH430 WT, Table 2 (Example 4), read-out: MIC pH430 E. coli WT): 2 µg/mL (≈ 3.19 µM)
MIC50 ([2]; strain AG01, read-out: MIC50 E coli AG01): 8 to 16 µg/mL (≈ 12.8 to 25.5 µM)
MIC50 ([2]; strain AG03, read-out: MIC50 E coli AG03): 8 µg/mL (≈ 12.8 µM)
MIC50 ([2]; strain AG55, read-out: MIC50 E coli AG55): 8 to 16 µg/mL (≈ 12.8 to 25.5 µM)
MIC50 ([3]; strain AG31, read-out: MIC50 P aeruginosa AG31): 32 to 64 µg/mL (≈ 51.1 to 102 µM)
MIC50 ([3]; strain AG32, read-out: MIC50 P aeruginosa AG32): 32 µg/mL (≈ 51.1 µM)
MIC50 ([3]; strain AG33, read-out: MIC50 P aeruginosa AG33): > 32 µg/mL
MIC ([3]; strain AG220 Pseudomonas aeruginosa ATCC27853, read-out: MIC AG220 P. aerugin): 8 µg/mL (≈ 12.8 µM)
MIC ([4]; read-out: MIC AG037 E. coli APH(3′)-III): 2 µg/mL (≈ 3.19 µM)
MIC ([4]; read-out: MIC AG163 E. coli APH(3′)-I): 4 to 8 µg/mL (≈ 6.38 to 12.8 µM)
MIC ([4]; read-out: MIC AG166 E. coli APH(3′)-II): 8 to 16 µg/mL (≈ 12.8 to 25.5 µM)
MIC ([4]; read-out: MIC APH(3)-VI): 2 to 4 µg/mL (≈ 3.19 to 6.38 µM)
MIC ([4]; read-out: MIC APH(3′)-I): 2 µg/mL (≈ 3.19 µM)
MIC ([4]; read-out: MIC APH(3′)-II): 2 µg/mL (≈ 3.19 µM)
MIC ([4]; read-out: MIC APH(3′)-III): 2 µg/mL (≈ 3.19 µM)
MIC ([4]; read-out: MIC E coli AG007 ANT(3″) AAC(3)-I): 4 µg/mL (≈ 6.38 µM)
MIC ([4]; read-out: MIC E coli AG103 ArmA): 32 µg/mL (≈ 51.1 µM)
MIC ([4]; read-out: MIC E coli AG163/164 APH(3′)-Ia): 4 to 8 µg/mL (≈ 6.38 to 12.8 µM)
MIC ([4]; read-out: MIC E coli AG166 APH(3′)-IIa): 8 to 16 µg/mL (≈ 12.8 to 25.5 µM)
MIC ([4]; read-out: MIC pH421 E. coli APH(3′)-I): 2 µg/mL (≈ 3.19 µM)
MIC ([4]; read-out: MIC pH422 E. coli APH(3′)-II): 4 µg/mL (≈ 6.38 µM)
MIC ([4]; read-out: MIC pH423 E. coli APH(3′)-VI): 2 to 4 µg/mL (≈ 3.19 to 6.38 µM)
IC50 [5]: 0.12 µM
IC50 [6]: 90 µM
IC50 [7]: 144 µM
MIC ([8]; Klebsiella pneumoniae, read-out: MIC AG215 K. pneumon): 1 to 2 µg/mL (≈ 1.6 to 3.19 µM)
MIC [9]: 4 µg/mL (≈ 6.38 µM)
MIC ([10]; read-out: MIC AG290 E. cloacae): 2 µg/mL (≈ 3.19 µM)
zone of inhibition at 25 nmol/disc ([11]; Neisseria gonorrhoeae): 13 mm
MIC ([12]; Mycolicibacterium smegmatis, SZ380, read-out: MIC SZ380 M. smegmatis, strain SZ380 Mycobacterium smegmatis): 1 µg/mL (≈ 1.6 µM)

CC(N)C1OC(OC2C(N)CC(N)C(O)C2OC2OC(CO)C(OC3OC(CN)C(O)C(O)C3N)C2O)C(N)C(O)C1O (stereo not shown) [Compound 166]
MIC50 MRSA AG38 ([1]; strain AG38): 2 µg/mL (≈ 3.18 µM)
MIC50 MRSA AG39 ([1]; strain AG39): >128 µg/mL
MIC50 MRSA AG42 ([1]; strain AG42): >128 µg/mL
MIC50 MRSA AG44 ([1]; strain AG44): 1 µg/mL (≈ 1.59 µM)
MIC50 E coli BM13 (AG06) wt [2]: 0.5 to 1 µg/mL
MIC50 E coli pH430 WT [2]: 0.5 μg/ml
MIC50 E coli AG01 ([2]; strain AG01): 2 µg/mL (≈ 3.18 µM)
MIC50 E coli AG03 ([2]; strain AG03): 2 µg/mL (≈ 3.18 µM)
MIC50 E coli AG55 ([2]; strain AG55): 2 µg/mL (≈ 3.18 µM)
MIC AG212 E. coli [2]: 1 µg/mL (≈ 1.59 µM)
MIC50 P aeruginosa AG31 ([3]; strain AG31, Table 1 (Example 2)): ≥128 µg/mL
MIC50 P aeruginosa AG32 ([3]; strain AG32, Table 1 (Example 2)): 128 µg/mL (≈ 204 µM)
MIC50 P aeruginosa AG33 ([3]; strain AG33, Table 1 (Example 2)): ≥128 µg/mL
MIC50 P aeruginosa AG86 ([3]; strain AG86, Table 1 (Example 2)): 16 µg/mL (≈ 25.5 µM)
MIC AG220 P. aerugin [3, 13]: >32 µg/mL
MIC50 E coli AG09 AAC(6′) ([4]; AG09 AAC(6′), Table 2A (Example 2)): 0.5 µg/mL (≈ 0.795 µM)
MIC50 E coli AG036 ANT(4′,4″) ([4]; Table 2A (Example 2)): 16 µg/mL (≈ 25.5 µM)
MIC50 E coli AG036 ANT(4′,4″) ([4]; Table 2B (Example 2)): 16 µg/mL (≈ 25.5 µM)
MIC50 E coli AG037 APH(3′)-III ([4]; Table 2B (Example 2)): >64 µg/mL
MIC50 E coli AG037 APH(3′,5″) ([4]; AG037 APH(3′,5″), Table 2A (Example 2)): >64 µg/mL
MIC50 E coli AG103 armA ([4]; Table 2B (Example 2)): 1 µg/mL (≈ 1.59 µM)
MIC50 E coli pH414 AAC(6′)-I ([4]; Table 2B (Example 2)): 0.5 μg/ml
MIC50 E coli pH415 AAC(6′)-II ([4]; Table 2B (Example 2)): 1-2 μg/ml
MIC50 E coli pH421 APH(3′)-I ([4]; Table 2B (Example 2)): >32 μg/ml
MIC50 E coli pH422 APH(3′)-II ([4]; Table 2B (Example 2)): >32 μg/ml
MIC50 E coli pH423 APH(3)-VI ([4]; Table 2B (Example 2)): >32 μg/ml
MIC50 E coli pH432 ANT(4′) ([4]; Table 2B (Example 2)): 0.5 μg/ml
MIC AG215 K. pneumon [8]: 0.25 to 0.5 µg/mL
MIC AG225 A. baumannii [9]: 1 µg/mL (≈ 1.59 µM)
MIC AG290 E. cloacae [10]: 0.5 µg/mL (≈ 0.795 µM)
Disk diffusion 25 nmol N. gonorrhoeae [11]: 12 mm
MIC SZ380 M. smegmatis [12]: 0.125 to 0.25 µg/mL

CC(O)C1OC(OC2C(N)CC(N)C(O)C2OC2OC(CO)C(OC3OC(CN)C(O)C(O)C3N)C2O)C(N)C(O)C1O (stereo not shown) [Compound 156]
MIC50 MRSA AG38 ([1]; strain AG38): 4 to 8 µg/mL
MIC50 MRSA AG39 ([1]; strain AG39): >128 µg/mL
MIC50 MRSA AG42 ([1]; strain AG42): >128 µg/mL
MIC50 MRSA AG44 ([1]; strain AG44): 2 to 4 µg/mL
MIC50 E coli BM13 (AG06) wt [2]: 1 µg/mL (≈ 1.59 µM)
MIC50 E coli pH430 WT [2]: 1 μg/ml
MIC50 E coli AG01 ([2]; strain AG01): 4 µg/mL (≈ 6.35 µM)
MIC50 E coli AG03 ([2]; strain AG03): 4 to 8 µg/mL
MIC50 E coli AG55 ([2]; strain AG55): 4 µg/mL (≈ 6.35 µM)
MIC AG212 E. coli [2]: 2 µg/mL (≈ 3.18 µM)
MIC AG220 P. aerugin [3, 13]: >32 µg/mL
MIC50 E coli AG036 ANT(4′,4″) ([4]; Table 2B (Example 2)): 32 to 64 µg/mL
MIC50 E coli AG037 APH(3′)-III ([4]; Table 2B (Example 2)): >32 µg/mL
MIC50 E coli AG103 armA ([4]; Table 2B (Example 2)): 1 µg/mL (≈ 1.59 µM)
MIC50 E coli pH414 AAC(6′)-I ([4]; Table 2B (Example 2)): 1 μg/ml
MIC50 E coli pH415 AAC(6′)-II ([4]; Table 2B (Example 2)): 1 μg/ml
MIC50 E coli pH421 APH(3′)-I ([4]; Table 2B (Example 2)): >32 μg/ml
MIC50 E coli pH422 APH(3′)-II ([4]; Table 2B (Example 2)): >32 μg/ml
MIC50 E coli pH423 APH(3)-VI ([4]; Table 2B (Example 2)): >32 μg/ml
MIC50 E coli pH432 ANT(4′) ([4]; Table 2B (Example 2)): 1 μg/ml
MIC AG215 K. pneumon [8]: 1 µg/mL (≈ 1.59 µM)
MIC AG225 A. baumannii [9]: 2 µg/mL (≈ 3.18 µM)
MIC AG290 E. cloacae [10]: 1 µg/mL (≈ 1.59 µM)
Disk diffusion 25 nmol N. gonorrhoeae [11]: 10 mm
MIC SZ380 M. smegmatis [12]: 0.5 µg/mL (≈ 0.794 µM)

Reference: patent US11466044B2 (WAYNE STATE UNIVERSITY, priority 2017, dated 2022)
